Experiment [1] concerns the target T1, human mAChR M1 (Homo sapiens, UniProt P11229).
T1 sequence (P11229 1-460): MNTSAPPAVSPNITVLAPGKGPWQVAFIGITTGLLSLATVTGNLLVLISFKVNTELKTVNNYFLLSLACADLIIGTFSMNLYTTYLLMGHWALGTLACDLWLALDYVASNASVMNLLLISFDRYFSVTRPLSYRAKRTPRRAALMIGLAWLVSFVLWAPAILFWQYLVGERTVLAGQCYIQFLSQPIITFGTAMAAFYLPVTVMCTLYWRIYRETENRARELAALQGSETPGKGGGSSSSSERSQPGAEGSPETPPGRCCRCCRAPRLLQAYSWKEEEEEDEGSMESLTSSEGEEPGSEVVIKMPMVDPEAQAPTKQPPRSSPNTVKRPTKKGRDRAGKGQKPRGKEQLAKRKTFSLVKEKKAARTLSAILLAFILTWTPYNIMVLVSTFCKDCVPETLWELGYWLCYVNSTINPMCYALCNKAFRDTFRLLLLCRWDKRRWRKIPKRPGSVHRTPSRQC
The experiment in a line: mAChR M1 cell-based functional assay (calcium mobilization), agonist mode: compound alone, Emax relative to acetylcholine maximum. The settings on record: for Agonist Activity Human M1 EC50 / EC50: human mAChR M1; for Emax: relative to the maximum for acetylcholine. The method, boiled down:
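CHO-K1 cells stably expressing hM1 were loaded with Fluo-4 AM, and calcium flux was read as fluorescence ratio. Compound was added alone from an 11-point 1:3 curve, and the agonist response was fitted with a four-parameter logistic. Emax is expressed relative to the acetylcholine maximum.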
On the technique in general: A change in cytosolic calcium serves as a functional read-out for many receptors and channels.

For experiment [2], the target named is T1, human mAChR M1. The experiment in a line: mAChR M1 cell-based functional assay (calcium mobilization), PAM mode: increase in the EC20 acetylcholine response. In outline:
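CHO-K1 cells stably expressing hM1, Fluo-4 loaded, read by FDSS calcium flux at 1 Hz. Compound (11-point 1:3 CRC) added at 4 s, EC20 acetylcholine at 144 s, EC80 at 230 s. PAM activity taken as concentration-dependent increase in EC20 ACh response, fitted by four-parameter logistic for EC50/Emax.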

On to `[2H]C1([2H])c2ncccc2C(=O)N1Cc1c(F)cc(-c2ccc(OC)c3nn(C)cc23)cc1Cl` [Compound 163, 6-(2-chloro-6-fluoro-4-(7-methoxy-2-methyl-2H-indazol-4-yl)benzyl)-6,7-dihydro-5H-pyrrolo[3,4-b]pyridin-5-one-7,7-d2], for which, on human mAChR M1 [1], the “Agonist Activity Human M1 EC50” value is on record as “Inactive” and the Emax was determined as 3%. For the same compound, on human mAChR M1 [2], the EC50 was found to be 239 nM and the Emax is 81%.

Take `[2H]C1([2H])c2ncccc2C(=O)N1Cc1c(F)cc(-c2ccc(F)c3nn(C)cc23)cc1Cl` [Compound 164, 6-(2-chloro-6-fluoro-4-(7-fluoro-2-methyl-2H-indazol-4-yl)benzyl)-6,7-dihydro-5H-pyrrolo[3,4-b]pyridin-5-one-7,7-d2]: on human mAChR M1 [1], the “Agonist Activity Human M1 EC50” value is given as “Inactive” and the Emax came out at 3%. Further, at human mAChR M1 [2], the concentration for a half-maximal effect (EC50) came out at 476 nM and the Emax was found to be 82%.

For `[2H]C1([2H])c2ncccc2C(=O)N1Cc1c(F)cc(-c2ccnc3nn(C)cc23)cc1Cl` [Compound 165, 6-(2-chloro-6-fluoro-4-(2-methyl-2H-pyrazolo[3,4-b]pyridin-4-yl)benzyl)-6,7-dihydro-5H-pyrrolo[3,4-b]pyridin-5-one-7,7-d2], at human mAChR M1 [1], the EC50 was ≥ 10000 nM and the maximum response (Emax) worked out at 16%. Also, on human mAChR M1 [2], the EC50 stood at 643 nM and the Emax was 93%.

Turning to `[2H]C1([2H])c2ncccc2C(=O)N1Cc1c(F)cc(-c2cccc3nn(C)cc23)cc1Cl` [Compound 166, 6-(2-chloro-6-fluoro-4-(2-methyl-2H-indazol-4-yl)benzyl)-6,7-dihydro-5H-pyrrolo[3,4-b]pyridin-5-one-7,7-d2], at human mAChR M1 [1], the “Agonist Activity Human M1 EC50” value is recorded as “Inactive” and the Emax came to 5%. In addition, at human mAChR M1 [2], the 50% effective concentration (EC50) turned out to be 318 nM and the Emax is 82%.

Regarding `[2H]C1([2H])c2ncccc2C(=O)N1Cc1c(F)cc(-c2ccc3nn(C)cc3c2)cc1Cl` [Compound 167, 6-(2-chloro-6-fluoro-4-(2-methyl-2H-indazol-5-yl)benzyl)-6,7-dihydro-5H-pyrrolo[3,4-b]pyridin-5-one-7,7-d2], on human mAChR M1 [1], the “Agonist Activity Human M1 EC50” value is “Inactive” and the maximum response (Emax) was determined as 2%. In addition, at human mAChR M1 [2], the EC50 amounted to 256 nM and the maximum response (Emax) came out at 85%.

In the case of `[2H]C1([2H])c2ncccc2C(=O)N1Cc1c(F)cc(-c2cnc3nn(C)cc3c2)cc1Cl` [Compound 168, 6-(2-chloro-6-fluoro-4-(2-methyl-2H-pyrazolo[3,4-b]pyridin-5-yl)benzyl)-6,7-dihydro-5H-pyrrolo[3,4-b]pyridin-5-one-7,7-d2], at human mAChR M1 [1], the “Agonist Activity Human M1 EC50” value is recorded as “Inactive” and the Emax amounted to 6%. Moreover, on human mAChR M1 [2], the EC50 turned out to be 1480 nM and the maximal response (Emax) stood at 86%.

As for `[2H]C1([2H])c2ncccc2C(=O)N1Cc1c(F)cc(-c2ccc(OC3CC3)c3nn(C)cc23)cc1Cl` [Compound 169, 6-(2-chloro-4-(7-cyclopropoxy-2-methyl-2H-indazol-4-yl)-6-fluorobenzyl)-6,7-dihydro-5H-pyrrolo[3,4-b]pyridin-5-one-7,7-d2], on human mAChR M1 [1], the “Agonist Activity Human M1 EC50” value is “Inactive” and the Emax amounted to 7%. Also, on human mAChR M1 [2], the EC50 was determined as 630 nM and the Emax stood at 81%.

Take `[2H]C1([2H])c2ncccc2C(=O)N1Cc1c(F)cc(-c2ccc(OCCOC)c3nn(C)cc23)cc1Cl` [Compound 170, 6-(2-chloro-6-fluoro-4-(7-(2-methoxyethoxy)-2-methyl-2H-indazol-4-yl)benzyl)-6,7-dihydro-5H-pyrrolo[3,4-b]pyridin-5-one-7,7-d2]: on human mAChR M1 [1], the “Agonist Activity Human M1 EC50” value is on record as “Inactive” and the maximum response (Emax) is 9%. On human mAChR M1 [2], the concentration giving a half-maximal response (EC50) stood at 322 nM and the maximal effect (Emax) turned out to be 81%.

Take `[2H]C1([2H])c2ncccc2C(=O)N1Cc1c(F)cc(-c2ccc(O[C@@H](C)COC)c3nn(C)cc23)cc1F` [Compound 171, (S)-6-(2,6-difluoro-4-(7-((1-methoxypropan-2-yl)oxy)-2-methyl-2H-indazol-4-yl)benzyl)-6,7-dihydro-5H-pyrrolo[3,4-b]pyridin-5-one-7,7-d2]: at human mAChR M1 [1], the EC50 was ≥ 10000 nM and the Emax is 31%. In addition, on human mAChR M1 [2], the EC50 came to 337 nM and the Emax came to 81%.

Regarding `[2H]C1([2H])c2ncccc2C(=O)N1Cc1c(F)cc(-c2ccc(OC[C@@H](C)OC)c3nn(C)cc23)cc1F` [Compound 172, (R)-6-(2,6-difluoro-4-(7-(2-methoxypropoxy)-2-methyl-2H-indazol-4-yl)benzyl)-6,7-dihydro-5H-pyrrolo[3,4-b]pyridin-5-one-7,7-d2], at human mAChR M1 [1], the EC50 is ≥ 10000 nM and the Emax was 27%. Also, at human mAChR M1 [2], the concentration giving a half-maximal response (EC50) was determined as 354 nM and the maximum response (Emax) turned out to be 82%.

For the compound `[2H]C1([2H])c2ncccc2C(=O)N1Cc1c(F)cc(-c2ccc(OC3CN(C(=O)OC(C)(C)C)C3)c3nn(C)cc23)cc1F` [Compound 173, tert-butyl 3-((4-(3,5-difluoro-4-((5-oxo-5,7-dihydro-6H-pyrrolo[3,4-b]pyridin-6-yl-7,7-d2)methyl)phenyl)-2-methyl-2H-indaazol-7-yl)oxy)azetidine-1-carboxylate], on human mAChR M1 [1], the “Agonist Activity Human M1 EC50” value is reported as “Inactive” and the Emax amounted to 2%. At human mAChR M1 [2], the EC50 came to 1340 nM and the Emax was determined as 82%.

`[2H]C1([2H])c2ncccc2C(=O)N1Cc1c(F)cc(-c2ccc(OCC3(C#N)CC3)c3nn(C)cc23)cc1F` [Compound 174, 1-(((4-(3,5-difluoro-4-((5-oxo-5,7-dihydro-6H-pyrrolo[3,4-b]pyridin-6-yl-7,7-d2)methyl)phenyl)-2-methyl-2H-indazol-7-yl)oxy)methyl)cyclopropane-1-carbonitrile]: the results for the concentration giving a half-maximal response (EC50) on human mAChR M1 [1] and on human mAChR M1 [2] were 8120 nM and 193 nM, respectively. Further, the figures for the Emax on human mAChR M1 [1] and at human mAChR M1 [2] were 26% and 86%, respectively.

For the compound `[2H]C1([2H])c2ncccc2C(=O)N1Cc1ccc(-c2ccc(OC[C@@H](C)OC)c3nn(C)cc23)cc1F` [Compound 175, (R)-6-(2-fluoro-4-(7-(2-methoxypropoxy)-2-methyl-2H-indazol-4-yl)benzyl)-6,7-dihydro-5H-pyrrolo[3,4-b]pyridin-5-one-7,7-d2], the results for the EC50 at human mAChR M1 [1] and at human mAChR M1 [2] were ≥ 10000 nM and 837 nM, respectively. In addition, the figures for the maximum response (Emax) on human mAChR M1 [1] and at human mAChR M1 [2] were 12% and 86%, respectively.

With `[2H]C1([2H])c2ncccc2C(=O)N1Cc1ccc(-c2ccc(OC3CN(C(=O)OC(C)(C)C)C3)c3nn(C)cc23)cc1F` [Compound 176, tert-butyl 3-((4-(3-fluoro-4-((5-oxo-5,7-dihydro-6H-pyrrolo[3,4-b]pyridin-6-yl-7,7-d2)methyl)phenyl)-2-methyl-2H-indazol-7-yl)oxy)azetidine-1-carboxylate], at human mAChR M1 [1], the “Agonist Activity Human M1 EC50” value is listed as “Inactive” and the maximal effect (Emax) is 2%. Besides, on human mAChR M1 [2], the EC50 was 1320 nM and the Emax was determined as 60%.

Turning to `[2H]C1([2H])c2ncccc2C(=O)N1Cc1c(C)cc(-c2ccc(OCCOC)c3nn(C)cc23)cc1F` [Compound 177, 6-(2-fluoro-4-(7-(2-methoxyethoxy)-2-methyl-2H-indazol-4-yl)-6-methylbenzyl)-6,7-dihydro-5H-pyrrolo[3,4-b]pyridin-5-one-7,7-d2], on human mAChR M1 [1], the EC50 was 6120 nM and the maximal effect (Emax) amounted to 27%. At human mAChR M1 [2], the half-maximal effective concentration (EC50) was 201 nM and the maximal effect (Emax) turned out to be 82%.

Regarding `[2H]C1([2H])c2ncccc2C(=O)N1Cc1ccc(-c2ccc(OCC3(C#N)CC3)c3nn(C)cc23)cc1F` [Compound 178, 1-(((4-(3-fluoro-4-((5-oxo-5,7-dihydro-6H-pyrrolo[3,4-b]pyridin-6-yl-7,7-d2)methyl)phenyl)-2-methyl-2H-indazol-7-yl)oxy)methyl)cyclopropane-1-carbonitrile], at human mAChR M1 [1], the “Agonist Activity Human M1 EC50” value is on record as “Inactive” and the Emax stood at 9%. Besides, at human mAChR M1 [2], the EC50 stood at 277 nM and the maximal effect (Emax) is 79%.

Turning to `[2H]C1([2H])c2ncccc2C(=O)N1Cc1c(F)cc(-c2ccc(OCC3CN(C(=O)OC(C)(C)C)C3)c3nn(C)cc23)cc1F` [Compound 179, tert-butyl 3-(((4-(3,5-difluoro-4-((5-oxo-5,7-dihydro-6H-pyrrolo[3,4-b]pyridin-6-yl-7,7-d2)methyl)phenyl)-2-methyl-2H-indazol-7-yl)oxy)methyl)azetidine-1-carboxylate], at human mAChR M1 [1], the “Agonist Activity Human M1 EC50” value is recorded as “Inactive” and the maximal response (Emax) came to 1%. On human mAChR M1 [2], the EC50 was determined as 1120 nM and the Emax stood at 55%.

As to `[2H]C1([2H])c2ncccc2C(=O)N1Cc1c(F)cc(-c2ccc(OC3CN(C(C)C)C3)c3nn(C)cc23)cc1F` [Compound 180, 6-(2,6-difluoro-4-(7-((1-isopropylazetidin-3-yl)oxy)-2-methyl-2H-indazol-4-yl)benzyl)-6,7-dihydro-5H-pyrrolo[3,4-b]pyridin-5-one-7,7-d2], on human mAChR M1 [1], the “Agonist Activity Human M1 EC50” value is given as “Inactive” and the maximum response (Emax) was 9%. Besides, at human mAChR M1 [2], the EC50 amounted to 297 nM and the Emax was found to be 85%.

As a reminder, the Emax is the greatest response seen or fitted, relative to the assay's reference. The EC50 is the concentration that produces a half-maximal response.

For the origin of these results see patent US20240228489A1, “POSITIVE ALLOSTERIC MODULATORS OF THE MUSCARINIC ACETYLCHOLINE RECEPTOR M1” (Vanderbilt University, priority 2021, published 2024).
